In patent publication EP3521435A1, “A HIGH STRINGENCY SELECTION SYSTEM FOR PROTEIN EXPRESSION IN PROLINE-AUXOTROPHIC CELLS” (Bayer AG, priority 2018, dated 2019):

Assays:
[1] = system: CHO-K1 cells; experiment: Batch fermentation in shake flasks of human IgG1 expressing stable cell populations (Poros A-HPLC titer, viable cell density, viability); type: cell-based, Chinese hamster; settings: pJF1576; for Productivity profile: human IgG1
[2] = system: CHO-K1 cells; experiment: Cell viability post-transfection of transfected cell populations under selection conditions; type: cell-based, Chinese hamster; settings: for recovery of cultures: 0.8 mM DHP; for Viability on day 15 post-transfection: pJF2460
Procedure, shortened: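 Suspension CHO-K1 nucleofected (1e7 cells, 5 µg linearized DNA) with GFP vectors carrying puromycin marker plus SV40-driven murine P5CS; seeded 2e5 viable cells/ml, selected with 10 µg/ml puromycin or in proline/ornithine-free medium ± added pressure, viability tracked over time. GFP read by flow cytometry (yellow channel, PI-excluded dead cells): MFI and % high fluorescers above set threshold.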

[3] = Day 7 after inoculation, selected in CD-Fusion w/o Pro + 0.1 mM DHP, non-selecting conditions
[4] = Day 7 after inoculation, selected in CD-Fusion w/o Pro + 0.1 mM DHP, selective conditions
[5] = Day 7 after inoculation, selected in CD-Fusion w/o Pro + 0.2 mM DHP, non-selecting conditions
[6] = Day 7 after inoculation, selected in CD-Fusion w/o Pro + 0.2 mM DHP, selective conditions
[7] = Day 7 after inoculation, selected in CD-Fusion w/o Pro + 0.4 mM DHP, non-selecting conditions
[8] = Day 7 after inoculation, selected in CD-Fusion w/o Pro + 0.4 mM DHP, selective conditions
[9] = Day 9 after inoculation, selected in CD-Fusion w/o Pro + 0.05 mM DHP, non-selecting conditions
[10] = Day 9 after inoculation, selected in CD-Fusion w/o Pro + 0.1 mM DHP, non-selecting conditions
[11] = Day 9 after inoculation, selected in CD-Fusion w/o Pro + 0.2 mM DHP, non-selecting conditions
[12] = Day 9 after inoculation, selected in CD-Fusion w/o Pro + 0.4 mM DHP, non-selecting conditions
[13] = pJF1555, CD-Fusion w/o Pro + 0.2 mM DHP
[14] = pJF1576, CD-Fusion w/o Pro + 0.2 mM DHP
[15] = pJF1576, CD-Fusion w/o Pro + 0.4 mM DHP

O=C(O)[C@@H]1C=CCN1 [DHP, 3,4-Dehydro-L-Proline]
Viability profile [1, 3]: 95.6%
Viable cell density profile [1, 3]: 7,9E+06 VCD/ml
Viability profile [1, 4]: 32.2%
Viable cell density profile [1, 4]: 4.0E+06 VCD/ml
Viability profile [1, 5]: 97.4%
Viable cell density profile [1, 5]: 9,6E+06 VCD/ml
Viability profile [1, 6]: 93.2%
Viable cell density profile [1, 6]: 9.1E+06 VCD/ml
Viability profile [1, 7]: 98.1%
Viable cell density profile [1, 7]: 1,1E+07 VCD/ml
Viability profile [1, 8]: 56.1%
Viable cell density profile [1, 8]: 6.9E+06 VCD/ml
Productivity profile [1, 9]: 115.5 mg/L
Productivity profile [1, 10]: 127.1 mg/L
Productivity profile [1, 11]: 153.7 mg/L
Productivity profile [1, 12]: 164.7 mg/L
Viability profile [1, 9]: 19.5%
Viable cell density profile [1, 9]: 2,5E+06 VCD/ml
Viability profile [1, 10]: 5.1%
Viable cell density profile [1, 10]: 6,4E+05 VCD/ml
Viability profile [1, 11]: 18.7%
Viable cell density profile [1, 11]: 2,2E+06 VCD/ml
Viability profile [1, 12]: 21.7%
Viable cell density profile [1, 12]: 3,1E+06 VCD/ml
recovery of cultures ([2]; pJF1555, even after prolonged incubations): did not recover
recovery of cultures ([2]; pJF1576): did not recover
Viability on day 12 post-transfection ([2]; pJF1555, CD-Fusion w/o Pro + 0.05 mM DHP): 83%
Viability on day 12 post-transfection ([2]; pJF1555, CD-Fusion w/o Pro + 0.1 mM DHP): 53%
Viability on day 12 post-transfection [2, 13]: 40%
Viability on day 19 post-transfection [2, 13]: 27%
Viability on day 12 post-transfection ([2]; pJF1555, CD-Fusion w/o Pro + 0.4 mM DHP): 20%
Viability on day 12 post-transfection ([2]; pJF1555, CD-Fusion w/o Pro + 0.8 mM DHP): 13%
Viability on day 19 post-transfection ([2]; pJF1555, CD-Fusion w/o Pro + 1 mM DHP): 7%
Viability on day 19 post-transfection ([2]; pJF1555, CD-Fusion w/o Pro + 5 mM DHP): 6%
Viability on day 19 post-transfection ([2]; pJF1555, CD-Fusion w/o Pro + 10 mM DHP): 7%
DHP concentration at which cultures did not recover ([2]; pJF1555, proline-free medium, even after extension of cultivation): ≥ 1 mM
Viability on day 12 post-transfection ([2]; pJF1576, CD-Fusion w/o Pro + 0.05 mM DHP): 91%
Viability on day 12 post-transfection ([2]; pJF1576, CD-Fusion w/o Pro + 0.1 mM DHP): 74%
Viability on day 12 post-transfection [2, 14]: 49%
Viability on day 21 post-transfection [2, 14]: 87.4%
Viability on day 12 post-transfection [2, 15]: 28%
Viability on day 21 post-transfection [2, 15]: 65.3%
Viability on day 21 post-transfection ([2]; pJF1576, CD-Fusion w/o Pro + 0.5 mM DHP): 42.8%
Viability on day 21 post-transfection ([2]; pJF1576, CD-Fusion w/o Pro + 0.6 mM DHP): 35.7%
Viability on day 12 post-transfection ([2]; pJF1576, CD-Fusion w/o Pro + 0.8 mM DHP): 23%
Viability on day 21 post-transfection ([2]; pJF1969, CD-Fusion w/o Pro + 0.2 mM DHP): 26.5%
Viability on day 21 post-transfection ([2]; pJF1969, CD-Fusion w/o Pro + 0.4 mM DHP): 22.9%
Viability on day 21 post-transfection ([2]; pJF1969, CD-Fusion w/o Pro + 0.5 mM DHP): 23.3%
Viability on day 21 post-transfection ([2]; pJF1969, CD-Fusion w/o Pro + 0.6 mM DHP): 25.9%
Viability on day 21 post-transfection ([2]; pJF1970, CD-Fusion w/o Pro + 0.2 mM DHP): 18.2%
Viability on day 21 post-transfection ([2]; pJF1970, CD-Fusion w/o Pro + 0.4 mM DHP): 21.4%
Viability on day 21 post-transfection ([2]; pJF1970, CD-Fusion w/o Pro + 0.5 mM DHP): 18.3%
Viability on day 21 post-transfection ([2]; pJF1970, CD-Fusion w/o Pro + 0.6 mM DHP): 18.2%
Viability on day 22 post-transfection ([2]; pJF2055, CD-Fusion w/o Pro + 0.02 mM DHP): 99.5%
Viability on day 22 post-transfection ([2]; pJF2055, CD-Fusion w/o Pro + 0.03 mM DHP): 99.2%
Viability on day 22 post-transfection ([2]; pJF2055, CD-Fusion w/o Pro + 0.04 mM DHP): 99.2%
Viability on day 22 post-transfection ([2]; pJF2055, CD-Fusion w/o Pro + 0.06 mM DHP): 83.3%
Viability on day 22 post-transfection ([2]; pJF2055, CD-Fusion w/o Pro + 0.07 mM DHP): 65.3%
Viability on day 22 post-transfection ([2]; pJF2055, CD-Fusion w/o Pro + 0.08 mM DHP): 36.3%
Viability on day 22 post-transfection ([2]; pJF2303, CD-Fusion w/o Pro + 0.02 mM DHP): 99.3%
Viability on day 22 post-transfection ([2]; pJF2303, CD-Fusion w/o Pro + 0.04 mM DHP): 99.6%
Viability on day 22 post-transfection ([2]; pJF2303, CD-Fusion w/o Pro + 0.06 mM DHP): 99.4%
Viability on day 22 post-transfection ([2]; pJF2303, CD-Fusion w/o Pro + 0.08 mM DHP): 99.2%
Viability on day 22 post-transfection ([2]; pJF2303, CD-Fusion w/o Pro + 0.2 mM DHP): 98.4%
Viability on day 22 post-transfection ([2]; pJF2303, CD-Fusion w/o Pro + 0.3 mM DHP): 98.2%
Viability on day 22 post-transfection ([2]; pJF2303, CD-Fusion w/o Pro + 0.4 mM DHP): 98.5%
Viability on day 22 post-transfection ([2]; pJF2303, CD-Fusion w/o Pro + 0.5 mM DHP): 99.1%
Viability on day 15 post-transfection ([2]; CD-Fusion w/o Pro + 0.01 mM DHP): 73.2%
Viability on day 15 post-transfection ([2]; CD-Fusion w/o Pro + 0.03 mM DHP): 44.1%
Viability on day 15 post-transfection ([2]; CD-Fusion w/o Pro + 0.04 mM DHP): 30.6%
Viability on day 15 post-transfection ([2]; CD-Fusion w/o Pro + 0.05 mM DHP): 22.8%
